# US10100077B2, “6-aryl-9-glycosylpurines and use thereof” (UNIVERZITA PALACKEHO V OLOMOUCI, priority 2014, dated 2018)
# Key:
# Format in all cases: cell-based
# [1] = tested on: Normal human dermal fibroblasts (NHDF); experiment: In vitro phototoxicity test (UVA, neutral red); conditions: UVA 5.0 J/cm^2, 0.9-125 μmol/l or 3.9-500 μmol/l, neutral red after 24 hours
# Experimental: Phototoxic potential of test compound was determined by modified in vitro test validated phototoxicity evaluation (Spielmann H, Balls M, Dupuis J, Pape W J, Pechovitch G, de Silva O, Holzhater H G, Clothier R, Desolle P, Gerberick F, Liebsch M, Lovell W W, Maurer T, Pfannenbecker U, Potthast J M, Csato M, Sladowski D, Steiling W, Brantom P., Toxicol In Vitro. 1998 Jun. 1; 12(3):305-27). Normal human dermal fibroblasts (NHDF) were used as an in vitro model. Cells were isolated from tissue specimens obtained from healthy patients undergoing plastic surgery at the Department of Plastic and Aesthetic Surgery (University Hospital Olomouc). The use of skin tissue was in accordance with the Ethics Committee of the University Hospital and Faculty of Medicine and Dentistry, Palacký University, Olomouc and all patients signed written informed consent. Fibroblasts were used between the 2nd and 4th passage. […]
# Test compound was 6-(3-methoxybenzylamino)-9-β-D-arabinofuranosylpurine. […] Intensity of UVA radiation was evaluated before each irradiation by UVA-meter. […] After 24 hours (37° C., 5% CO2) cell damage was evaluated by neutral red (NR) incorporation into viable cells. […] After 5 minutes of intensive shaking absorbance was measured at 540 nm. […] Phototoxic effect was evaluated as % of viability of control cells that was calculated from experimental data (absorbance) according to the following equation: […]
# [2] = tested on: EpiDERM 3D model of epidermis; experiment: In vitro test of skin irritation in EpiDERM
# Experimental: EpiDERM™ is a 3D model of epidermis manufactured by Mattek company. The effects of tested substances are evaluated by MTT. 2 solutions (2 application forms) of the compounds 6-furfurylamino-9-β-D-arabinofuranosylpurine and 6-(3-methoxybenzylamino)-9-β-D-arabinofuranosylpurine in concentrations 1 mM a 200 microM in 0.5% DMSO/99.5% PBS were evaluated according to a standard protocol “INVITRO EpiDerm™ SKIN IRRITATION TEST”. After a preincubation of the tissues, 30 microliters of the application form solution were applied on the individual tissues. The exposition time was 60 minutes. Three tissues were used for each tested concentration as well as for controls. Following washing out of the applied solution, the tissues were incubated for 42 hour in order to allow a reparation of possible damage. In the next step, the tissue was incubated with MTT for 3 hours. The resulting formazan was extracted to isopropanol. Relative viability of the individual tissues was calculated as a percentage of viability of the average of the negative controls. Average viability of the tissues treated with 1 mM solution of the test substance was 99.3% for the compound 6-(3-methoxybenzylamino)-9-β-D-arabinofuranosylpurine and 98.0% for the compound 6-(furfurylamino)-9-β-D-arabinofuranosylpurine where 100% is an average viability of the tissues treated with the solvent only. None of the tested compounds in any of the concentrations caused any tissue damage or irritation. The compounds were evaluated as non-irritant in the tested concentrations.
# [3] = tested on: skin fibroblasts BJ and keratinocytes HaCaT; experiment: SRB in vitro toxicity test; conditions: Homo sapiens, 72 hour treatment, maximal concentration 50 microM
# Procedure, shortened: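 BJ fibroblasts and HaCaT keratinocytes were exposed for 72 h to sixfold-diluted compound (maximum 50 μM), with DMSO as vehicle. Cells were TCA-fixed and stained with SRB, and absorbance was read at 564 nm. IC50 was calculated from dose-response curves.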
compound,measurement,setting,value
COc1cccc(CNc2ncnc3c2ncn3[C@@H]2O[C@H](CO)[C@@H](O)[C@@H]2O)c1 [6-(3-methoxybenzylamino)-9-β-D-arabinofuranosylpurine],phototoxic effect (viability after UVA),[1],non-phototoxic
same,skin irritation evaluation,[2]; 1 mM and 200 microM in 0.5% DMSO/99.5% PBS,non-irritant
same,Average viability of the tissues,"[2]; 1 mM solution, 60 minutes exposition, 100% = solvent only",99.3%
same,IC50,[3],> 50 µM
